Measured values as given in patent publication US20150018311A1, “THERAPEUTIC BORON-CONTAINING COMPOUNDS” (priority 2012, published 2015).

Tests used:
Assay in all cases: Growth in liquid media in presence of test compound
Format in all cases: cell-based
[1] = system: Streptococcus pyogenes (ATCC 19615)
[2] = system: Candida albicans (ATCC 90028)
[3] = system: Staphylococcus aureus (ATCC 25923)
[4] = system: Pseudomonas aeruginosa (ATCC 27853)
[5] = system: Escherichia coli (ATCC 25922)
[6] = system: Mycobacterium tuberculosis (H37Rv)

SMILES | Growth in the presence of test compound, S. pyogenes ([1]; 5 mg/L) | Growth in the presence of test compound, S. pyogenes ([1]; 50 mg/L) | Growth in the presence of test compound, S. pyogenes ([1]; 500 mg/L) | Growth in the presence of test compound, C. albicans ([2]; 5 mg/L) | Growth in the presence of test compound, C. albicans ([2]; 50 mg/L) | Growth in the presence of test compound, C. albicans ([2]; 500 mg/L) | Growth in the presence of test compound, S. aureus ([3]; 5 mg/L) | Growth in the presence of test compound, S. aureus ([3]; 50 mg/L) | Growth in the presence of test compound, S. aureus ([3]; 500 mg/L) | Growth in the presence of test compound, P. aeruginosa ([4]; 5 mg/L) | Growth in the presence of test compound, P. aeruginosa ([4]; 50 mg/L) | Growth in the presence of test compound, P. aeruginosa ([4]; 500 mg/L) | Growth in the presence of test compound, E. coli ([5]; 5 mg/L) | Growth in the presence of test compound, E. coli ([5]; 50 mg/L) | Growth in the presence of test compound, E. coli ([5]; 500 mg/L) | Growth in the presence of test compound, M. tuberculosis ([6]; 5 mg/L) | Growth in the presence of test compound, M. tuberculosis ([6]; 50 mg/L) | Growth in the presence of test compound, M. tuberculosis ([6]; 500 mg/L)
CC1(C)C2CC3OB(C(CNC(=O)C(N)CCCCN)Cc4ccccc4)OC3(C)C1C2 (stereo not drawn) [Compound 13] | + | + | − | + | + | − | + | + | − | + | + | − | + | + | − | + | − | −
CC1(C)C2CC3OB([C@@H](CNC(=O)[C@H](N)Cc4ccccc4)Cc4ccccc4)O[C@]3(C)C1C2 (stereo partly drawn) [Compound 41] | + | + | ± | + | ± | ± | + | + | ± | + | + | + | + | + | + | + | ± | ±
Cl.N[C@@H](Cc1ccccc1)C(=O)NC[C@@H](Cc1ccc(F)cc1)B(O)O [Compound 50] | + | + | − | + | + | + | + | + | − | + | + | ± | + | + | − | ± | − | −
CC1(C)C2CC3OB([C@@H](CNC(=O)[C@@H](N)CCCNC(=N)N)Cc4ccccc4)O[C@]3(C)C1C2 (stereo partly drawn) [Compound 11] | + | + | − | + | + | − | + | + | − | + | + | − | + | + | − | ± | − | −
